Results reported in publication PMC9596378, “Discovery and molecular basis of subtype-selective cyclophilin inhibitors” (Nature Chemical Biology, 2022).
Like-named read-outs stand apart in the source and are kept apart here.

Columns and labels:
HeLa cells = experiment: Fluorescence microscopy of Cy5-conjugated compounds; format: cell-based, human
Procedure: Cells were seeded into 96-well, black, clear-bottom, TC-treated plates, in DMEM supplemented with 10% FBS 24 h prior at a density where wells were ~80% confluent at the time of the experiment. Medium was removed and cells were then stained with 50 µL mixture containing Cy5-labeled compound (6 µM) in Kreb’s ringer solution HEPES buffered pH 7.2 (KRB), for 1 h at 37 °C. Then, 50 µL Hoechst 33342 (8 µM) and Mitotracker Green FM (0.1 µM) in KRB was added directly to wells containing cells and incubated for 15 min at 37 °C. Medium was removed and cells were washed twice with 100 µL KRB. Cells were then kept adherent to the wells in 100 µL KRB for imaging. Fluorescence microscopy was conducted on an Opera Phenix Plus High-Content Screening System, using Alexa 488, Alexa 647, and Hoescht 33342 channels. Images were analyzed using Harmony v.4.9.

CypA E81S/K82R = target: T1, CypA E81S/K82R (Homo sapiens, UniProt P62937, E81S/K82R); experiment: Chymotrypsin coupled prolyl-isomerase assay; format: biochemical
T1 construct: Lane 12- SNA-CypA E81S/K82R (1-165);; His6 tag with TEV site (2BT vector); SNA remnant stays on the N-terminus (N, cleaved yes); made in house; host or cells: E. coli BL21(DE3)
In short: (§1)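 Chymotrypsin-coupled cis–trans isomerization of Suc-AAPF-AMC (5 µM) catalysed by 5 nM cyclophilin, run cold (2–3 °C) at pH 7.3 with 5 min compound preincubation.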

CypD K118A = target: T2, CypD K118A (Homo sapiens, UniProt P30405, K118A); experiment: Chymotrypsin coupled prolyl-isomerase assay; format: biochemical; settings: prolyl-isomerase inhibition
T2 construct: made in house; host or cells: E. coli BL21(DE3)
In short: as §1

CypD K118E = target: T3, CypD K118E (Homo sapiens, UniProt P30405, K118E); experiment: Chymotrypsin coupled prolyl-isomerase assay; format: biochemical; settings: for IC50: prolyl-isomerase inhibition
T3 construct: made in house; host or cells: E. coli BL21(DE3)
In short: as §1

CypD R124A = target: T4, CypD R124A (Homo sapiens, UniProt P30405, R124A); experiment: Chymotrypsin coupled prolyl-isomerase assay; format: biochemical
T4 construct: made in house; host or cells: E. coli BL21(DE3)
In short: as §1

CypD R124K = target: T5, CypD R124K (Homo sapiens, UniProt P30405, R124K); experiment: Chymotrypsin coupled prolyl-isomerase assay; format: biochemical; settings: mutant CypD R124K; read-out: Mutant Cyclophilin Prolyl Isomerase Inhibition IC50 Values, CypD R124K
T5 construct: made in house; host or cells: E. coli BL21(DE3)
In short: as §1

CypD S123E = target: T6, CypD S123E (Homo sapiens, UniProt P30405, S123E); experiment: Chymotrypsin coupled prolyl-isomerase assay; format: biochemical; settings: prolyl-isomerase inhibition
T6 construct: made in house; host or cells: E. coli BL21(DE3)
In short: as §1

CypB E121S = target: T7, CypB E121S (Homo sapiens, UniProt P23284, E121S); experiment: biochemical
T7 construct: Lane 14- SNA-CypB E121S (34-216);; His6 tag with TEV site (2BT vector); SNA remnant stays on the N-terminus (N, cleaved yes); made in house; host or cells: E. coli BL21(DE3)
In short: as §1

CypE = target: T8, CypE (Homo sapiens, UniProt Q9UNP9); experiment: Competition anisotropy binding assay with A26-Fl
T8 construct: PPIE (UniProtKB Entry Q9UNP9: residues 131–301); host or cells: E. coli BL21(DE3)
Procedure: (§2) Adapted from previous work[52], cyclophilin in assay buffer (25 mM HEPES pH 8.0, 100 mM NaCl, 0.01% Triton X-100) at a pre-determined concentration from Supplementary Table 6 was incubated with 0.5 nM A26-Fl for 10 min at room temperature in a flat-bottom black untreated 96-well plate (Corning). Competitor macrocycle was then added to each well and incubated for 24 h. Final assay volume was 100 µL with 0.25% DMSO. Fluorescence anisotropy was then measured using a Tecan Spark plate reader using 492 nm/523 nm excitation/emission settings.

CypE K212A = target: T9, CypE K212A (Homo sapiens, UniProt Q9UNP9, K212A); experiment: Competition anisotropy binding assay with A26-Fl; settings: FP competition with 0.5 nM A26-Fl, 24 h
T9 construct: Lane 4- GS-CypE K212A (131-301);; His6 tag with thrombin site (pET28a LIC); GS remnant stays on the N-terminus (N, cleaved yes); host or cells: E. coli BL21(DE3)
Procedure: as §2

CypE K217A = target: T10, CypE K217A (Homo sapiens, UniProt Q9UNP9, K217A); experiment: Competition anisotropy binding assay with A26-Fl
T10 construct: Lane 5- GS-CypE K217A (131-301);; His6 tag with thrombin site (pET28a LIC); GS remnant stays on the N-terminus (N, cleaved yes); host or cells: E. coli BL21(DE3)
Procedure: as §2

CypE K218A = target: T11, CypE K218A (Homo sapiens, UniProt Q9UNP9, K218A); experiment: Competition anisotropy binding assay with A26-Fl; settings: FP competition with 0.5 nM A26-Fl, 24 h
T11 construct: Lane 6- GS-CypE K218A (131-301);; His6 tag with thrombin site (pET28a LIC); GS remnant stays on the N-terminus (N, cleaved yes); host or cells: E. coli BL21(DE3)
Procedure: as §2

[1] = mutant CypA E81S/K82R, read-out: Mutant Cyclophilin Prolyl Isomerase Inhibition IC50 Values, CypA E81S/K82R
[2] = mutant CypD R124A, read-out: Mutant Cyclophilin Prolyl Isomerase Inhibition IC50 Values, CypD R124A
[3] = mutant CypB E121S, read-out: Mutant Cyclophilin Prolyl Isomerase Inhibition IC50 Values, CypB E121S
[4] = prolyl-isomerase inhibition, read-out: IC50 CypA E81S/K82R
[5] = prolyl-isomerase inhibition, read-out: IC50 CypB E121S

T1 sequence (P62937 whole entry E81S/K82R): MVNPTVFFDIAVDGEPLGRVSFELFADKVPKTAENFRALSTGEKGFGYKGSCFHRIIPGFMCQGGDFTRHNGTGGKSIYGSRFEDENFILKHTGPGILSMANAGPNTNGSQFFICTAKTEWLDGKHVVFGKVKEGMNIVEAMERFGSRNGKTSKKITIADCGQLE
T5 sequence (P30405 45-207 R124K): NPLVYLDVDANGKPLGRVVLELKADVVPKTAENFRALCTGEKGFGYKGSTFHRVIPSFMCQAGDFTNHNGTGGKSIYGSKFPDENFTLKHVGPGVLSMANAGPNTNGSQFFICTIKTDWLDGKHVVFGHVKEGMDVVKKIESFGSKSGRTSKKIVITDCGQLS
T3 sequence (P30405 45-207 K118E): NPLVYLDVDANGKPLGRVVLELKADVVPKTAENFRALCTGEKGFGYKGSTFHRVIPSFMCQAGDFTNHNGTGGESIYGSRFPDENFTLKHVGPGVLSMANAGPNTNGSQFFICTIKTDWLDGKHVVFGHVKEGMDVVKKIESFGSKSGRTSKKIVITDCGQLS
T7 sequence (P23284 34-216 E121S): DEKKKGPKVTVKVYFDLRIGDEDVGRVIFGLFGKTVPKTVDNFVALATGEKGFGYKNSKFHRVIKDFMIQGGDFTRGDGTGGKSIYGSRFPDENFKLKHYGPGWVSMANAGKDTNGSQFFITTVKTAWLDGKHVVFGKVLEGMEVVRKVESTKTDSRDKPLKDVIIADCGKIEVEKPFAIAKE
T6 sequence (P30405 45-207 S123E): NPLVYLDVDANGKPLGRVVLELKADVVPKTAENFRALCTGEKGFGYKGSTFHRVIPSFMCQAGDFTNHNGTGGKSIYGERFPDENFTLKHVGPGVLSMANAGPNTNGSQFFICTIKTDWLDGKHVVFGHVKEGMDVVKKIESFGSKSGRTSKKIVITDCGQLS
T2 sequence (P30405 45-207 K118A): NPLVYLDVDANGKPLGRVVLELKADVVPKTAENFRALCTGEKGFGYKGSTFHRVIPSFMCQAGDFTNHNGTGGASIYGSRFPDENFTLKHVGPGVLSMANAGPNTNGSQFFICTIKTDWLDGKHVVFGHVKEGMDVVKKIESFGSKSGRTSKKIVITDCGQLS
T4 sequence (P30405 45-207 R124A): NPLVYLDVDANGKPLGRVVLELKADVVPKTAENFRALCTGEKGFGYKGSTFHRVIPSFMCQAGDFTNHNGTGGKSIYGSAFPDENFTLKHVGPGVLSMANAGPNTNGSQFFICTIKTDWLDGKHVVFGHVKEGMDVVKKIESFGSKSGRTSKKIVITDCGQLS
T8 sequence (Q9UNP9 131-301): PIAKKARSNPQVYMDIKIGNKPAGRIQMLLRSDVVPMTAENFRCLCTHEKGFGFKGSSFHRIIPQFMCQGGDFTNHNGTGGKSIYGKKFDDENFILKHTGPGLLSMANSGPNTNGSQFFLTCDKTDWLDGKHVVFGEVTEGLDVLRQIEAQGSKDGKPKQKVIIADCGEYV
T11 sequence (Q9UNP9 131-301 K218A): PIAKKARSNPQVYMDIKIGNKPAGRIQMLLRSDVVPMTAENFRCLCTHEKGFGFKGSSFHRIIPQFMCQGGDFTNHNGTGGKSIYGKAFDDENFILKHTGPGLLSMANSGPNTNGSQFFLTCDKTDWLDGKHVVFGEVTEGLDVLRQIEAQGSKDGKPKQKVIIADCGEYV
T10 sequence (Q9UNP9 131-301 K217A): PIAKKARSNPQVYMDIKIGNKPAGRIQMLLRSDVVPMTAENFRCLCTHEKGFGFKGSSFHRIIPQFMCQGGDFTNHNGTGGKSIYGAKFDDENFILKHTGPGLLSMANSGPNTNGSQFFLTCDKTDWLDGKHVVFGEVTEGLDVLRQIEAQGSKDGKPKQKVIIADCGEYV
T9 sequence (Q9UNP9 131-301 K212A): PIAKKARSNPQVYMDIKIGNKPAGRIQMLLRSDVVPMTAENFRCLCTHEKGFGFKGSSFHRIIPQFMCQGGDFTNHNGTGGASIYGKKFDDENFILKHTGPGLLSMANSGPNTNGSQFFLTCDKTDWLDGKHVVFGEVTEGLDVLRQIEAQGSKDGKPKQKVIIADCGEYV

| Compound | plasma membrane permeability / mitochondrial localization (in words) (HeLa cells) | IC50 (CypD K118A) | IC50 (CypD K118E) | IC50 (CypD R124A; [2]) | IC50 (CypD R124K) | IC50 (CypD S123E) | other results |
| --- | --- | --- | --- | --- | --- | --- | --- |
| C[N+]1=C(C=CC=CC=C2N(CCCCCC(=O)NCCNC(=O)C3CCNC(=O)C=CC(=O)N4CCCC(Cc5ccccc5)(C4)C(=O)NC(Cc4ccc(-c5ccc(CC(C(=O)O)C(=O)O)cc5)cc4)C(=O)NCc4ccccc4CC(=O)N3)c3ccccc3C2(C)C)C(C)(C)c2ccccc21 (centres unmarked) [*B52-Cy5] | poor | – | – | – | – | – | – |
| C[N+]1=C(C=CC=CC=C2N(CCCCCC(=O)NCCNC(=O)C3CCNC(=O)C=CC(=O)N4CCCC(Cc5ccccc5)(C4)C(=O)NC(Cc4ccc(-c5ccc(C(CC(=O)O)CC(=O)O)cc5)cc4)C(=O)NCc4ccccc4CC(=O)N3)c3ccccc3C2(C)C)C(C)(C)c2ccccc21 (centres unmarked) [*B53-Cy5] | poor | – | – | – | – | – | – |
| NCCOCCNC(=O)[C@@H]1CCNC(=O)/C=C/C(=O)N2CCC[C@](Cc3ccccc3)(C2)C(=O)N[C@@H](Cc2ccc(-c3ccc(CCC(=O)O)cc3)cc2)C(=O)NCc2ccccc2CC(=O)N1 [Compound B23] | – | 70 nM | 180 nM | 3 nM | 2.9 nM | 23 nM | IC50 (CypA E81S/K82R; [1]): 23 nM; IC50 (CypB E121S; [3]): 8 nM |
| NCCOCCNC(=O)[C@@H]1CCNC(=O)/C=C/C(=O)N2CCC[C@](Cc3ccccc3)(C2)C(=O)N[C@@H](Cc2ccc(-c3ccc(C#CC(=O)O)cc3)cc2)C(=O)NCc2ccccc2CC(=O)N1 [Compound B25] | – | 19 nM | 60 nM | 2 nM | 2.9 nM | 8 nM | IC50 (CypA E81S/K82R; [1]): 6.2 nM; IC50 (CypB E121S; [3]): 2.2 nM |
| NCCCc1ccc(-c2ccc(C[C@@H]3NC(=O)[C@]4(Cc5ccccc5)CCCN(C4)C(=O)/C=C/C(=O)NCC[C@@H](C(=O)NCCOCCN)NC(=O)Cc4ccccc4CNC3=O)cc2)cc1 [Compound B32] | – | – | 1100 nM | – | – | – | potency improvement on CypD K118E, R124A compared to wild-type CypD (CypD K118E; single mutants K118E, R124A): 5- to 6 fold; IC50 (CypD R124A; prolyl-isomerase inhibition, read-out: IC50 CypD R124A): 700 nM |
| C[N+]1=C(C=CC=CC=C2N(CCCCCC(=O)NCCNC(=O)C3CCNC(=O)C=CC(=O)N4CCCC(Cc5ccccc5)(C4)C(=O)NC(Cc4ccc(-c5ccc(CC(C(=O)O)C(=O)O)cc5)cc4)C(=O)NCc4ccccc4CC(=O)N3)c3ccccc3C2(C)C)C(C)(C)c2ccccc21 (centres unmarked) [Compound B52-Cy5] | poor and did not observe efficient plasma membrane permeability | – | – | – | – | – | – |
| NCCOCCNC(=O)[C@@H]1CCNC(=O)/C=C/C(=O)N2CCC[C@](Cc3ccccc3)(C2)C(=O)N[C@@H](Cc2ccc(-c3ccc(CC(C(=O)O)C(=O)O)cc3)cc2)C(=O)NCc2ccccc2CC(=O)N1 [Compound B52] | – | 73 nM | 300 nM | 17 nM | 20 nM | 240 nM | IC50 (CypA E81S/K82R; [4]): 27 nM; IC50 (CypB E121S; [5]): 8 nM |
| C[N+]1=C(C=CC=CC=C2N(CCCCCC(=O)NCCNC(=O)C3CCNC(=O)C=CC(=O)N4CCCC(Cc5ccccc5)(C4)C(=O)NC(Cc4ccc(-c5ccc(C(CC(=O)O)CC(=O)O)cc5)cc4)C(=O)NCc4ccccc4CC(=O)N3)c3ccccc3C2(C)C)C(C)(C)c2ccccc21 (centres unmarked) [Compound B53-Cy5] | poor and did not observe efficient plasma membrane permeability | – | – | – | – | – | – |
| NCCOCCNC(=O)[C@@H]1CCNC(=O)/C=C/C(=O)N2CCC[C@](Cc3ccccc3)(C2)C(=O)N[C@@H](Cc2ccc(-c3ccc(C(CC(=O)O)CC(=O)O)cc3)cc2)C(=O)NCc2ccccc2CC(=O)N1 [Compound B53] | – | 900 nM | 4000 nM | 32 nM | 100 nM | 800 nM | IC50 (CypA E81S/K82R; [4]): 180 nM; IC50 (CypB E121S; [5]): 50 nM |
| NC(=O)C1CCNC(=O)C=CC(=O)N2CCCC(Cc3ccccc3)(C2)C(=O)NC(Cc2ccc(-c3ccc(C=O)c(B(O)O)c3)cc2)C(=O)NCc2ccccc2CC(=O)N1 (centres unmarked) [Compound C3A] | – | – | – | – | – | – | selectivity for CypE over other tested cyclophilins (CypE; FP competition with A26-Fl): ≥ 10 fold; Ki (CypE K212A): 98 nM; less potent at competing A26-Fl from CypE K217A compared to wild-type CypE (CypE K217A): 40 fold; Ki (CypE K218A): 250 nM |
| NC(=O)[C@@H]1CCNC(=O)/C=C/C(=O)N2CCC[C@](Cc3ccccc3)(C2)C(=O)N[C@@H](Cc2ccc(-c3cccc(B(O)O)c3)cc2)C(=O)NCc2ccccc2CC(=O)N1 [Compound C6A] | – | – | – | – | – | – | Ki (CypE; FP competition with 0.5 nM A26-Fl, 24 h): 7000 nM; reduced potency relative to C3A (CypE; FP competition with A26-Fl, CypE): 100 fold |
